Paper PMC7365463, “Oxfendazole mediates macrofilaricidal efficacy against the filarial nematode Litomosoides sigmodontis in vivo and inhibits Onchocerca spec. motility in vitro” (PLoS Neglected Tropical Diseases, 2020)
Where two headings read alike, the source gives them in different places.

Experiments:
[1] = test system: L. sigmodontis microfilariae; test: L. sigmodontis microfilariae-injected naïve mice; assay type: in vivo, Litomosoides sigmodontis; conditions: mice injected with 100,000 microfilariae, BID 2 x 12.5 mg/kg per os for 5 days
Procedure: To investigate the in vivo efficacy of oxfendazole on microfilariae, microfilariae were isolated from peripheral blood of L. sigmodontis-infected cotton rats according to Chandrashekar et al. (1984) using a sucrose percoll gradient. 100,000 microfilariae were injected into the tail vein of naïve mice as previously described. Microfilariae-injected mice were treated with a commercial formulation of oxfendazole (Dolthene) twice daily with 2 x 12.5 mg/kg per os. As a positive control, additional mice were treated with a single intraperitoneal dose of ivermectin (5 mg/kg) in DMSO/PEG400/H20dest with a ratio of 1:7:2 according to Halliday et al.. Control animals received no treatment.

[2] = Plasma pharmacokinetics in mice (oral and subcutaneous); assay type: in vivo, BALB/c mice; conditions: for AUC(0-t) / Cmax / Tmax / half-life: female, BALB/c, mouse, plasma
Procedure: Female BALB/c mice (6 to 9-weeks old) were used to determine the plasma concentrations of oxfendazole. Animals were allocated to groups of three animals per dose, such that the mean weight of animals in each group was similar. All animals had access to a certified rodent diet (Beijing Keao […] Co, Ltd) and water ad libitum. In this study, all animals were fasted 12 h before dosing and returned to food 4 h post dose. Commercially available oxfendazole (Sigma Aldrich and Dolthene, Merial) was administered to animals. […] A commercially available formulation of oxfendazole, Dolthene, was diluted in corn oil and administered by oral gavage. After administration of the drug substances by oral gavage, blood samples were collected from each animal via the saphenous or mandibular veins at 0.25, 0.5, 1, 2, 4, 8, 12 and 24 h post dosing. For administration via the sc route, samples were collected from each animal 1, 3, 6, 9, 12, 18, 24, 36, 48, 72, 96, and 120 h post dosing. All samples were transferred into plastic tubes containing K2-EDTA (0.5 M) as an anti-coagulant and stored on ice until plasma preparation by centrifugation at 5°C (3000 g, 15 min). Analysis was conducted by LC-MS/MS (API 4000). Mobile phases were mixtures of acetonitrile (ACN) and water to which formic acid and 1 mM NH4OAc were added (0.025%, v/v). The ratio ACN/water was 5:95 (v/v) in the mobile phase A and 95:5 (v/v) in the mobile phase B. […] Electrospray positive ionization with selected ion MS/MS monitoring was used for the determination of oxfendazole: m/z 316.0/159.1.

[3] = Bioavailability in dog (in-house); conditions: in vivo, oral, in-house data at high dose of 25 mg/kg, read-out: Bioavailability (F)
Excerpt: Table 1 Human pharmacokinetic prediction for oxfendazole.

[4] = human
[5] = design: method as in PMID 1687815; conditions: rat/sheep/cattle, published data; cited from earlier work
[6] = design: method as in PMID 25701764; conditions: rat, published data; cited from earlier work
[7] = design: method as in PMID 30745383; conditions: daily doses up to 60 mg/kg; cited from earlier work
[8] = design: method as in earlier work; conditions: in vivo, lack of potential for aneuploidy; cited from earlier work
mammalian tubulin = test system: mammalian tubulin; design: method as in PMID 6712717, PMID 1554382; conditions: cited from earlier work
[9] = design: method as in earlier work; conditions: dogs; cited from earlier work
Onchocerca lupi = test system: Onchocerca lupi; design: method as in PMID 29377880; conditions: Onchocerca lupi-infected dogs; cited from earlier work
AMES bacterial assay = conditions: in vitro; cited from earlier work
[10] = rats; cited from earlier work
Brugia pahangi [11] = conditions: 100L3 (SC), cats, SC 100-400mg/kg x1, patent phase, necropsy 46-51 days p.t.; ref Denham 1979 (Ref. 4); cited from earlier work
Acanthocheilonema viteae = test system: Acanthocheilonema viteae; design: method as in Denham 1980 (Ref. 6); conditions: 80L3, jirds, SC 100mg/kg 5 cons. days, ref Denham 1980 (Ref. 6), cited from earlier work
Breinlia booliati = test system: Breinlia booliati; design: method as in Mak 1981 (Ref. 7); conditions: 100L3 (SC), rats, SC 3mg/kg 5 cons. days, patent phase, necropsy 4 weeks p.t.; ref Mak 1981 (Ref. 7); cited from earlier work
Brugia pahangi [12] = test system: Brugia pahangi; design: method as in de Burbure 1986 (Ref. 9); conditions: 200L3 (SC), Mastomys, food 56-82mg/kg, 7 days p.i., necropsy 177 days p.t., ref de Burbure 1986 (Ref. 9), cited from earlier work
[13] = test system: Acanthocheilonema viteae / Brugia pahangi; design: method as in Court 1988 (Ref. 10); conditions: 15Ad A.v. (SC) +15Ad B.p. (IP), jirds, 5 days p.i., necropsy 5 weeks p.t., ref Court 1988 (Ref. 10), cited from earlier work
[14] = PO, nominal dose 5 mg/kg (administered 4.8)
[15] = PO, nominal dose 25 mg/kg (administered 26.3)
[16] = SC, nominal dose 1 mg/kg (administered 1.0)
[17] = SC, nominal dose 25 mg/kg (administered 27.5)

With `COC(=O)Nc1nc2ccc([S+]([O-])c3ccccc3)cc2[nH]1` (stereo not shown) [oxfendazole] the “direct microfilaricidal effect in vivo” value [1] was “no direct microfilaricidal effect”, the “Cmax oral versus sc” value ([2]; 25 mg/kg, higher in the oral treated group) was “about 6 times” and the AUC(0-t) [2, 14] was 14700 ng·h/mL. The Cmax [2, 14] was 2530 ng/mL, the Tmax [2, 14] was 1.67 h and the half-life ([2]; PO, nominal dose 5 mg/kg (administered 4.8), read-out: T1/2 (converted)) was 172 min. The AUC(0-t) [2, 15] was 50300 ng·h/mL, the Cmax [2, 15] was 8590 ng/mL and the Tmax [2, 15] was 2 h. It also gave a half-life ([2]; PO, nominal dose 25 mg/kg (administered 26.3), read-out: T1/2 (converted)) of 112 min, an AUC(0-t) [2, 16] of 1280 ng·h/mL and a Cmax [2, 16] of 131 ng/mL. The Tmax [2, 16] was 1.67 h, the half-life ([2]; SC, nominal dose 1 mg/kg (administered 1.0), read-out: T1/2 (converted)) was 1490 min and the AUC(0-t) [2, 17] was 20800 ng·h/mL. The Cmax [2, 17] was 1450 ng/mL, the Tmax [2, 17] was 2.33 h and the half-life ([2]; SC, nominal dose 25 mg/kg (administered 27.5), read-out: T1/2 (converted)) was 4560 min. It also gave a Cmax ([2]; oral administration of 5 mg/kg) of 8 µM, a Cmax ([2]; oral administration of 25 mg/kg) of 27 µM and a Tmax ([2]; other: oral and sc, all groups (oral and sc)) of about 2 h. For the same molecule, the half-life ([2]; other: oral and sc, both routes of administration, read-out: half-life T1/2 during the first 12 h (converted)) was about 120 min, the “AUC0-last oral versus sc” value ([2]; higher when administered orally) was 2.4 times and the “terminal half-life sc versus T1/2 by oral route” value ([2]; terminal phase starting 12 h after dosing, longer for sc) was about 40 times. The bioavailability [3] was about 10%, the clearance [4] was about 0.4 mL/min/kg and the Vd ([4]; Vol. of Distribution (Vss), Final) was about 0.5 L/kg. For the same molecule, the CLhep predicted ([4]; hepatocytes) was 0.4 mL/min/kg, the bioavailability ([4]; po) was 30% and the “Bioavailability (F)” value [5] was over 50%. For the same molecule, the “Bioavailability (F)” value [6] was about 35%, the “tolerability in healthy volunteers” value [7] was “acceptable side effects” and the “rat micronucleus assay outcome” value [8] was “confirmed the in vitro results”. For the same molecule, the “affinity to mammalian tubulin” value (mammalian tubulin) was “weak affinity”, the cardiovascular effects [9] was “did not raise safety concerns” and the dermal microfilariae numbers (Onchocerca lupi) was “no significant decrease in dermal microfilariae numbers”. The “toxicity in AMES bacterial assay” value (AMES bacterial assay) was “did not exhibit toxicity” and the “subacute toxicity, behavioral effects” value [10] was “did not raise safety concerns”.

For `COC(=O)Nc1nc2cc(C(=O)c3ccc(F)cc3)ccc2[nH]1` [flubendazole], the “Reduction of worm burden” value (Brugia pahangi [11]) is listed as 100%, the “Reduction of worm burden” value (Acanthocheilonema viteae; 6 to 10 days p.i., necropsy 73-75 days p.t.) is listed as 100% and the “Reduction of worm burden” value (Acanthocheilonema viteae; 42-46 days p.i., necropsy 39-40 days p.t.) is listed as 100%. The “Reduction of worm burden” value (Breinlia booliati) was 100%, the “Reduction of worm burden” value (Brugia pahangi [12]; 7 days ad.lib.) was 100% and the “Reduction of worm burden” value (Brugia pahangi [12]; 14 days ad. lib.) was 100%. For the same molecule, the “Reduction of worm burden” value ([13]; SC 50mg/kg 5 cons. days) was 50% and the “Reduction of worm burden” value ([13]; SC 100mg/kg 5 cons. days) was 100%.
